These results are taken from PubChem BioAssay (NCI).

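Step 1: Grow cells in 96-well plates. Step 2: Expose to compound for 48 hours at 5 concentrations. Step 3: Interpolate endpoints linearly; if unreached, use highest concentration. TGI is the concentration that stops growth completely.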 Some results are limits rather than exact numbers.

Test systems include RXF 393 renal; UACC-257 melanoma; SNB-19 CNS; LOX IMVI melanoma; MDA-MB-435; HCC-2998 colon; HCT-116 colon.
Assay in all cases: growth of human tumour cells (NCI), 48 h

For the molecule `COC1=C(OC)C(=O)C(C/C=C/c2c(Cl)nc3sccn23)=C(C)C1=O`, the TGI in the assay on RXF 393 renal was 37.5 µM; with UACC-257 melanoma, 5.36 µM; in the assay on SNB-19 CNS, 27.6 µM; in the assay on LOX IMVI melanoma it was 12.1 µM; in the assay on MDA-MB-435, 23.6 µM; in the assay with HCC-2998 colon it was 39.3 µM. In addition, in the assay on HCT-116 colon, the TGI turned out to be 33.5 µM.

For `Cc1nnc(N)nc1C/C=C/C(C)Sc1ccc(Cl)cc1` (centres undefined), the TGI in the assay on RXF 393 renal was 22.2 µM; in the assay on UACC-257 melanoma, 30.8 µM; in the assay with SNB-19 CNS, over 51 µM; in the assay with LOX IMVI melanoma, over 30.4 µM; with MDA-MB-435, over 50.8 µM; in the assay with HCC-2998 colon, 31.3 µM. In the assay with HCT-116 colon, the TGI came to 33.8 µM.

`Cc1cc(S(=O)(=O)Nc2nnc3c(Cl)cc(C(F)(F)F)cn23)c(S)cc1Cl`: the TGI is over 100 µM with RXF 393 renal; over 100 µM in the assay on UACC-257 melanoma; over 91.4 µM with SNB-19 CNS; over 100 µM in the assay with LOX IMVI melanoma; over 100 µM in the assay with MDA-MB-435; over 100 µM in the assay with HCC-2998 colon. Moreover, the TGI with HCT-116 colon was over 100 µM.

For the molecule `CC(C)C1CCC(=O)CC1CCCCC1CC(=O)CC1O[Si](C)(C)C(C)(C)C` (centres undefined), the TGI in the assay on RXF 393 renal stood at 27.8 µM; in the assay on UACC-257 melanoma, 21.7 µM; with SNB-19 CNS, 13.2 µM; in the assay with LOX IMVI melanoma it was 9.28 µM; in the assay on MDA-MB-435 it was 10.9 µM; in the assay on HCC-2998 colon, 19.3 µM. This molecule yielded a TGI in the assay on HCT-116 colon of 15.3 µM.

`COc1cc(C2SCC(=O)N2c2ccc(Cl)cc2)cc(OC)c1OC` (centres undefined): the TGI in the assay on RXF 393 renal is 71.2 µM; in the assay with UACC-257 melanoma, over 100 µM; with SNB-19 CNS, over 100 µM; with LOX IMVI melanoma, over 100 µM; with MDA-MB-435 it was 19.4 µM; with HCC-2998 colon it was over 100 µM. In addition, in the assay on HCT-116 colon, the TGI is over 100 µM.

As for `COc1c(N2CCCCC2)c2c(=O)c3ccccc3oc2c2c3ccccc3n(C)c12`, the TGI in the assay on RXF 393 renal, in the assay with UACC-257 melanoma, with SNB-19 CNS, in the assay with LOX IMVI melanoma, in the assay with MDA-MB-435 and in the assay with HCC-2998 colon was over 100 µM each time. Further, the TGI in the assay on HCT-116 colon is over 100 µM.

In the case of `CC1=NC(=O)CNN1C1=NNC2(C(=O)N1)c1ccccc1-c1ccccc12`, the TGI with RXF 393 renal, with UACC-257 melanoma, with SNB-19 CNS, in the assay on LOX IMVI melanoma, with MDA-MB-435 and with HCC-2998 colon was over 100 µM in each case. This molecule gave a TGI with HCT-116 colon of over 100 µM.

Turning to `CC(C)NC(=O)OCc1c(COC(=O)NC(C)C)c(-c2cc[n+](COC(=O)Cc3ccccc3)cc2)n2c1CCC2`, the TGI in the assay on RXF 393 renal, in the assay on UACC-257 melanoma, in the assay with SNB-19 CNS, with LOX IMVI melanoma, in the assay on MDA-MB-435 and in the assay on HCC-2998 colon was over 100 µM throughout. In the assay with HCT-116 colon, this molecule came in with a TGI of over 100 µM.

Consider `COc1ccc(C(SCCO)(c2ccc(OC)cc2)c2ccc(OC)cc2)cc1`, for which the TGI in the assay with RXF 393 renal is 30.9 µM; with UACC-257 melanoma, 32.5 µM; in the assay with SNB-19 CNS, over 100 µM; in the assay on LOX IMVI melanoma, 27.1 µM; with MDA-MB-435 it was 23.5 µM; in the assay on HCC-2998 colon, 30.5 µM. Moreover, in the assay on HCT-116 colon, the TGI came out at 29.2 µM.

With `O=C(OCC1CC(C2(O)CCCCC2)C(=O)O1)c1ccccc1` (centres undefined), the TGI with RXF 393 renal, in the assay with UACC-257 melanoma, in the assay on SNB-19 CNS, with LOX IMVI melanoma, in the assay on MDA-MB-435 and in the assay with HCC-2998 colon was over 100 µM in each case. In the assay with HCT-116 colon, the TGI is over 100 µM.

As for `C=C1C(=O)O[C@H]2C1C[C@H](O)/C(C)=C/CC[C@@]1(C)O[C@H]21` (some centres undefined), the TGI in the assay with RXF 393 renal is 31.9 µM; in the assay on UACC-257 melanoma, 34.5 µM; in the assay with SNB-19 CNS, over 100 µM; in the assay on LOX IMVI melanoma, 23.5 µM; in the assay on MDA-MB-435, 37.3 µM; with HCC-2998 colon, 27.5 µM. Moreover, in the assay with HCT-116 colon, the TGI stood at 28.6 µM.

In the case of `CC(=O)OC1CC2C(=O)CC1(C)C2(C)C` (centres undefined), the TGI in the assay with RXF 393 renal, in the assay on UACC-257 melanoma, in the assay with SNB-19 CNS, with LOX IMVI melanoma, in the assay with MDA-MB-435 and with HCC-2998 colon was over 100 µM in each case. The same molecule displayed a TGI in the assay on HCT-116 colon of over 100 µM.

`CC1=C(C(=O)NNC(=O)c2ccccc2O)CC(C(=O)NNC(=O)c2ccccc2O)=C(C)N1`: the TGI with RXF 393 renal, in the assay on UACC-257 melanoma, in the assay on SNB-19 CNS, in the assay with LOX IMVI melanoma, with MDA-MB-435 and with HCC-2998 colon was over 100 µM throughout. Moreover, the TGI in the assay on HCT-116 colon was over 51.5 µM.

In the case of `CC(=O)Oc1ccc(C)c2c1[C@H]1CC[C@]3(C)[C@@H](OC(C)=O)CC[C@H]3[C@@H]1CC2`, the TGI came out at 35.4 µM in the assay on RXF 393 renal; 35.6 µM in the assay on UACC-257 melanoma; 32.6 µM in the assay with SNB-19 CNS; 31.4 µM in the assay on LOX IMVI melanoma; 32.9 µM in the assay on MDA-MB-435; 32.8 µM in the assay with HCC-2998 colon. Besides, in the assay with HCT-116 colon, the TGI was determined as 31.2 µM.

Turning to `C[n+]1ccc2/c(=C\C#N)c3ccccc3n21`, the TGI is over 100 µM with RXF 393 renal; 13.9 µM with UACC-257 melanoma; 30.1 µM with SNB-19 CNS; 40.4 µM with LOX IMVI melanoma; 63 µM with MDA-MB-435; 50.6 µM in the assay with HCC-2998 colon. The TGI in the assay with HCT-116 colon is over 100 µM.

In the case of `O=C(O)c1ccc(Nc2nc3ccc(C(F)(F)F)cc3nc2-c2ccccc2)cc1`, the TGI was over 100 µM in the assay on RXF 393 renal; over 100 µM in the assay on UACC-257 melanoma; over 100 µM with SNB-19 CNS; over 100 µM in the assay on LOX IMVI melanoma; over 100 µM in the assay with MDA-MB-435; 40.3 µM with HCC-2998 colon. Moreover, in the assay with HCT-116 colon, the TGI is over 100 µM.

As for `CCOC(=O)CN1C(=O)c2c(NC(=O)C(=O)O)cccc2S1(=O)=O`, the TGI in the assay on RXF 393 renal, with UACC-257 melanoma, with SNB-19 CNS, in the assay on LOX IMVI melanoma, in the assay with MDA-MB-435 and in the assay on HCC-2998 colon was over 100 µM in each case. This molecule had a TGI in the assay on HCT-116 colon of over 100 µM.
